Values joined by “and” are separate entries in the source; they are usually repeats but may differ in a detail not shown here. Identical values can stand only once. Where no end group is shown, it is not given here.
Assays:
[1] = Peptide-induced (Arg-Arg) assembly of AuNPs-citrate, TEM/MANTA/UV-Vis; details: water
Excerpt: Formation of AuNP assemblies. In this study, we investigated the possibility of forming convenient and reversible AuNPs assemblies using only elementary 15 nm AuNPs-citrate suspended in water and short peptides without the need for a complex surface modification. Peptides were used because they are relatively bulky and thus their steric prevented the particles from entering a permanent aggregated state. Arginine in particular can strongly interact with citrate anions via electrostatic interactions. A dipeptide containing two repetitions of arginine (Arg-Arg or RR) was thus used to interact with multiple particles at the same time and induce assembly.
Multispectral advanced nanoparticles tracking analysis (MANTA) was then used to confirm the size increase: The initial blue scattering corresponding to a hydrodynamic diameter of 40±25 nm (FIG. 1C) transformed immediately into red scattering corresponding to a hydrodynamic diameter of approximately 467±120 nm (FIG. 1D). Importantly, the count of particles decreased by more than 90%—from 2.5×10^5/mL to 2×10^4/mL, thus confirming that the vast majority of the AuNPs-citrate were aggregated. TEM images at different magnifications are seen in the supporting information (FIG. 10 and FIG. 11).
AuNPs Assembly and Dissociation Assembly. Typically, 1 mL of AuNPs-citrate at OD=1.5 was mixed with 50 μL of Arg-Arg (100 μM) to provoke the AuNPs assembly. The color of the suspensions rapidly changed from red to blue. The assembled AuNPs (Arg-Arg-AuNPs) were stable over time when stored at 4° C. and could be used for dissociation even month after their assembly.
The optical absorption measurements were collected using a hybrid multi-mode microplate reader (Synergy™ H1 model, BioTek Instruments, Inc.) in a 96-well plate. The dissociation of assembly was characterized by measuring the ratio of the absorbance at 520 nm or 530 nm and 700 nm or 820 nm for 20 nm NPs or 40 nm NPs, respectively.
The multispectral advanced nanoparticle tracking analysis (MANTA) is a technique that builds images from the particles' light scattering via three lasers of different wavelengths (for example, blue, green, and red); the wavelength of scattering depends on nanoparticle size. Thus, small particles (less than, or <, 100 nm) appear blue while larger particles appear greener or redder. MANTA uses these images to count the nanoparticles and calculate their size based on Brownian motion. MANTA was performed with the VIEWSIZER 3000™ (Horiba Scientific, USA). The temperature was set to 25° C. during the measurement. Automated noise analysis determines the optimal wavelength for representing each nanoparticle. Here, 8-bit composite videos were generated, and 10 videos were used per analysis (300 frames for seconds). A quartz cuvette with minimum volume of 1 mL was used for the measurement and the AuNPs concentrations was set up at 0.04 nM.

[2] = RRK-based aggregation of citrate-coated AuNPs; details: for particle aggregation of AuNPs: peptides from 0.5 to 30 μM
Excerpt: To induce reversible aggregation of the AuNPs, we used positively charged Arg and Lys-based peptide residues (i.e., RRK). The RRK peptide could induce plasmonic coupling by electrostatic attractions between negatively charged citrate molecules and guanidine and amine groups in RRK (FIG. 36a).^8,19 The size of AuNPs increased upon addition of RRK peptides, as confirmed by transmission electron microscopy (TEM) and dynamic light scattering (DLS) (FIG. 36b and FIG. 42). […] Raman spectroscopy observed the appearance of C—C stretching at 984 cm^−1 and C—N stretching at 1443 cm^−1 from Arg residues in RRK (FIG. 36d).^20 Lastly, R, RRK, and RRKRRK (SEQ ID NO:13) peptides (from 0.5 to 30 μM) were used to induce AuNP aggregates to study the impact of charge number on particle aggregation. […] A higher positive charge number can decrease the critical coagulation concentration (CCC).^7 RRK peptide was chosen in this study because particle aggregation induced by a strong cationic peptide (i.e., RRKRRK) (SEQ ID NO:13) can result in irreversible aggregation.
(§1) Briefly, 10 μM of RRK peptide was used to aggregate 100 μL of AuNPs (conc approximately 3.6 nM). The particle aggregation rapidly occurred (less than 10 s), changing color from red to blue. Then the desired dissociation peptides were used to dissociate the AuNP aggregates. It is notable that these exemplary AuNPs are stabilized by citrate. Different surface ligands (for example, BSPP) and different sizes (40 or 60 nm) require different amounts of RRK peptide for particle aggregation.

[3] = Colloidal stability of the dissociated AuNPs (aggregation parameter); assay type: physicochemical; details: for colloidal stability of peptide-capped AuNPs: NaCl 0.5 to 2 μM (so in the source), absorbance 520/600 nm
Protocol: We further studied the role of Glu, Lys, and Pro amino acids in A1 peptides (FIG. 37h). For example, Pro-based spacer can provide a rigid and self-assembling monolayer (SAM) that increases the colloidal stability of AuNPs.^28 When the spacer was moved to the site between Glu and Lys residues (i.e., A5), the dissociation capacity was 50% lower than A1 peptide. […] A1 peptide without Lys (i.e., A7) decreased to 30% of the dissociation capacity likely due to the decrease in grafting kinetics of thiol-Au bonds and hydration layers.^22,25 Lastly, the dissociated AuNPs were incubated in different concentrations ([…]) of NaCl to examine colloidal stability of the dissociated AuNPs (FIG. 37i).
Pro-, Ala-, and Gly-based spacers have different hydrophobic and hydrophilic natures, rigidity, and flexibility.^22,29 For example, Pro residue is more hydrophobic and rigid (i.e, low mobility) while Gly residue is more hydrophilic and flexible. To investigate the impact of the rigidity and hydrophilicity of the peptides on the particle dissociation, we synthesized A1, A10, and A11 peptides that have different spacers: PP, AA, GG (FIG. 38a-b and FIG. 49). We also synthesized the peptide without a spacer (i.e., A9) to confirm the impact of the spacer on particle dissociation. […] We further compared colloidal stability of the dissociated AuNPs by A1, A9, A10, and A11 peptides. The dissociated AuNPs were incubated in NaCl (from […]) for 1 h and measured variations of absorbance between 520 nm and 600 nm.
This exemplary dissociation strategy can also improve colloidal stability of plasmonic nanoparticles. […] Lastly, this exemplary dissociation strategy is less affected by matrix interference. We replaced the sample matrix with 100% human plasma, urine, saliva, and seawater after RRK-based AuNPs aggregation. After adding dissociation peptides, reversible aggregation still occurred, leading to a blue-shift of the plasmonic resonance peak; this in turn changes color from blue to red in 100% human plasma, urine, saliva, and seawater (FIG. 40j-k and FIG. 27).

[4] = biological target: SARS-CoV-2 main protease (Mpro) (Severe acute respiratory syndrome coronavirus 2, UniProt P0DTD1)
[5] = Peptide-enabled dissociation of RRK-induced AuNP aggregates
Protocol: After inducing AuNP aggregates by the RRK peptides, the A1 peptides with different concentrations from 7 to 300 μM were used to dissociate AuNP aggregates. The plasmonic resonance peak of AuNP aggregates blue shifted to 520 nm after particle dissociation. (FIG. 37b). The hydrodynamic diameter of AuNP aggregates (greater than (>) 1 μm) was reduced to 27±0.07 nm, and the surface charge of AuNPs was—13.4±1.03 mV because of surface modification with neutral charged A1 peptides (150 μM) and residual citrates (FIG. 37c). Particle dissociation induced color change from blue to red and a decrease in size as confirmed by time-dependent photographs, multi-laser wavelength nanoparticle tracking analysis (M-NTA), and TEM (FIG. 37d-e and FIG. 45A-C).
To further study the role of each amino acid in the A1 peptide, we synthesized eight peptide sequences (from A2 to A8) for control experiments (FIG. 46A-H). Table 1 includes peptide sequence, net charge, critical dissociation concentrations (CDC), and design rationale. First, we replaced Cys residue with Gly (i.e., A2) to confirm the role of the anchoring group. […] Second, we hypothesized that negatively charged EE residues were required for particle dissociation because they provide electrostatic repulsions for citrate-coated AuNPs.
as §1
Briefly, RRK peptides (8-10 μM) was first used to trigger AuNP aggregation in distilled water. The sample was centrifuged at […] for 5 min to remove the supernatant. Then, the pellet was re-dispersed in 100% human saliva, plasma, urine, and seawater. After re-dispersion, the desired amounts of dissociation peptide were used to dissociate AuNPs aggregates in different matrixes. […] The experiment was performed with three replicates, and the microplate reader was used to measure spectral scanning from 300 to 900 nm before and after dissociation. The ratiometric signal (λ520/λ700) was referred as dissociation. The data was blanked to remove background signal.

[6] = Dissociation efficiency of HS-PEG6-OCH3 for alternative assembly conditions or coating ligands; details: high concentration (>100 μM) of HS-PEG6-OCH3
Protocol: First, peptide-free conditions were used to promote the assembly of AuNPs-citrate and its dissociation with HS-PEG6-OCH3 was evaluated (FIG. 3A). Here, salts were added to AuNPs-citrate to induce aggregation via disruption of the electrostatic repulsion forces between the particles. […] Unlike the peptide Arg-Arg, these ions cannot sterically prevent the AuNPs from falling in an irreversible aggregated state.
AuNPs with different coating ligands were also evaluated and compared to citrate: bis(p-sulfonatophenyl)phenylphosphine (BSPP), mercaptobenzoic acid (MBA), or thiolated PEG-COOH (HS-PEG-COOH; Mw=634 g·mol^−1). […] This is because MBA and HS-PEG-COOH make covalent Au—S bonds with the gold surface that prevent subsequent grafting of HS-PEG6-OCH3.
Finally, an alternative control peptide was used for assembly (Cys-Arg-Lys).

trypsin = test: Trypsin sensing with HS-PEG-peptide conjugates and Arg-Arg-AuNPs assemblies; assay type: biochemical
Protocol: Peptides containing the motif Arg-Arg-Lys (RRK) were thus conjugated to a thiolated PEG capped with a carboxyl group (HS-PEG12-COOH, Mw=634 Da) via EDC/NHS cross-linking reaction. Three peptides based on the motif RRK were investigated and the number of RRK repetitions varied from 1 to 3 to increase the mass and charge of the resulting HS-PEG-peptide conjugate (FIG. 6A).
From concentrations of 10 μM, HS-PEG12-COOH is capable to dissociate 100% of the assemblies (FIG. 21). However, the conjugation of the peptides to the HS-PEG12-COOH was expected to decrease its capacity to dissociate the assemblies as it increases its size and charge. In this context, the addition of the HS-PEG-peptide conjugates to AuNPs assemblies could not generate a colorimetric signal. However, in the presence of trypsin, the proteolytic cleavage could progressively remove the amino acids residues from the conjugate, thus reducing its size and charge that would restore the dissociation capacity. A colorimetric signal, proportional to the trypsin activity, could thus be observed (FIG. 6B).
Typically, 1 mL of HS-PEG12-COOH (HS—(CH2CH2O)12—CH2CH2COOH, 634 Da, 1 mM) dissolved in MES buffer (10 mM, pH=5.5) was activated via the addition of 100 μL of EDC (50 mM, MES) and 40 μL of NHS (500 mM, MES). The reaction was stirred at room temperature for one hour. After one hour, 1 mL of peptide (or NH2-molecule) (1 mM) dissolved in PBS (100 mM, pH=7.4) was added to the activated HS-PEG12-COOH. The reaction was stirred for 4 hours at room temperature and then stored at 4° C.
Typically, 5 μL of the PEG-peptide conjugate (0.44 mM) were added to 5 μL of PBS 1×. […] At the end of the incubation, 100 μL of aggregated AuNPs (Arg-Arg-AuNPs) were added, and a color change proportional to the trypsin concentration was observed. UV-Vis spectra were recorded 30 minutes later.

Compound: N=C(N)NCCC[C@H](N)C(=O)O [R, arginine, reference compound]
- induction of assembly of AuNPs-citrate [1]: could not induce any form of assembly
- particle aggregation of AuNPs [2]: did not aggregate

Compound: Ace-CGGKKEEAVLQSGFR-Am (Ac-CGGKKEEAVLQSGFR-NH2) [Peptide A18]
- colloidal stability in extreme conditions ([3]; DMEM, human plasma, saliva, human urine, NaCl 0.5 to 2M): maintained high colloidal stability
- CDC [4]: at least 40 μM
- LoD for Mpro [4]: 12.3 nM and 16.7 nM and 16.4 nM
- specificity test [4]: only Mpro dissociated AuNP aggregates

Compound: Ace-EEKKC-Am [Peptide A9]
- colloidal stability of peptide-capped AuNPs [3]: relatively low colloidal stability

Compound: Ace-EEKKPPC-Am [Peptide A1]
- time to dissociate AuNP aggregates ([5]; >150 μM peptide, ratiometric signal λ520/λ700): 20 min
- hydrodynamic diameter after dissociation ([5]; A1 peptide 150 μM, aggregates >1 μm before): 27±0.07 nm
- CDC ([5]; critical dissociation concentration, X (no dissociation)): 150 µM
- CDC ([5]; spacer comparison PP, AA, GG): 40 µM
- colloidal stability of peptide-capped AuNPs [3]: higher colloidal stability than citrate-coated AuNPs

Compound: Arg-Arg-Lys [RRK]
- particle aggregation of AuNPs [2]: effectively induced particle aggregation
- plasmonic resonance peak after addition of peptide ([2]; red-shifted from 520 nm): 648 nm

Compound: Cys-Arg-Lys [reference compound]
- dissociation of the assembly by HS-PEG6-OCH3 [6]: irreversible

Compound: HS-PEG-RRKRRKRRK: HS-PEG12-COOH conjugated to peptide RRKRRKRRK via EDC/NHS (also: HS-PEG12 conjugated via EDC/NHS, site not given here)
- dissociation capacity of the intact conjugate (trypsin; titrated to Arg-Arg-AuNPs, up to >100 μM, no trypsin): total quenching of the dissociation capacity
- dissociation capacity after digestion with trypsin (trypsin; trypsin 10 μM, 37° C., 24 h): restored

Compound: RRKRRK
- particle aggregation of AuNPs [2]: effectively induced particle aggregation
